Test results taken from publication PMC11125126, “Synthesis, Characterisation, and In Vitro Evaluation of Biocompatibility, Antibacterial and Antitumor Activity of Imidazolium Ionic Liquids” (Pharmaceutics, 2024).

Legend:
MCF7 cancer cells = assay: Direct cytotoxicity test of IL powders, Alamar blue assay; assay type: cell-based, human; details: Homo sapiens, 24 h of incubation
Protocol: (§1) Cytotoxicity studies on IL powders were carried out using human dermal fibroblast (HDF) cells (Sigma-Aldrich) and a human breast cancer cell line (MCF7). In addition, ILs loaded in PVC polymer substrates were tested for their cytocompatibility and adhesion properties on the HDF. HDF cells were cultured in 75 cm^2 cell culture flask in Dulbecco’s Modified Eagle’s Medium (DMEM) supplemented with 20% Foetal Bovine Serum (FBS), 1% non-essential amino acid (NEAA), antibiotic solution (streptomycin 100 µg/mL and penicillin 100 U/mL, Sigma Aldrich) and 2 mM L-glutamine. MCF7 cells were grown in DMEM with 10% FBS and the same antibiotics as mentioned above. The cells were maintained in a culture at 37 °C, with 5% CO2 and 95% humidity to achieve a confluent layer. Control cells were cultured in a complete medium without any compounds in tissue culture plates. Before biological testing, the samples were sterilised using a UV light for 2 h.
(§2) A direct cytotoxicity test was used to assess the in vitro cytotoxicity of IL powders. IL powders with different alkyl chains were dissolved in DMEM media to obtain solutions at various concentrations (0.5–1–5 and 10 µg/mL) to determine the best formulation.
(§3) After 24 h of incubation of IL solutions (200 µL) with seeded cells under specific environmental conditions (T = 37 °C, HR = 95%, CO2 = 5%), cell viability was tested using the Alamar blue assay (AbD Serotec, Milan, Italy) following the manufacturer’s instructions.
(§4) In summary, each well received a 200 µL aliquot of Alamar Blue^TM diluted 1:10 in phenol red-free medium and was incubated for 4 h at 37 °C, 5% CO2. Following this, 100 µL of the solution was transferred to a 96-well plate for colorimetric analysis. Wells with no cells were included to account for any background interference from the redox indicator. Optical density was immediately measured using a spectrophotometer (Victor X3, Perkin Elmer, Waltham, MA, USA) at 560 and 595 nm wavelengths. The results were presented as a percentage of cell viability compared to that of the control (cells grown on tissue culture plates).
(§5) Here, the antitumor activity and cytotoxicity of the synthetised imidazolium-based ionic liquids have been determined for breast cancer cells (MCF-7) and healthy human fibroblast (HDF) cells. […] Table 5 reports the IC50 values in µg/mL and µM to make their comparison with the literature data easy.

HDF cells [1] = assay: as above; assay type: cell-based, human; details: Homo sapiens, 24 h of incubation
Protocol: as §1, §2, §3, §4, §5

[2] = Thermogravimetric analysis (TGA), thermal stability; assay type: physicochemical; details: neat ILs; single-step degradation; 10 °C/min, nitrogen
Protocol: Thermal stability and kinetic parameters of the synthesised ILs were investigated using the TA instruments Q500 thermogravimetric analyser (Milan, Italy). A certain amount of sample (4–5 mg) was placed in a platinum pan and heated at 10 °C min^−1 from 40 to 600 °C under a flow of nitrogen (60 mL/min).
Thermogravimetric analyses were performed to evaluate the thermal stability of ILs and PVC/IL blends. Before testing, the samples were subjected to drying cycles in a vacuum stove for 24 h at 50–60 °C, according to the thermal features of ILs, mainly considering their melting points. The ILs C9mimBF4, C10mimBF4, C9mimDMSIP, and C10mimDMSIP, which are liquid at RT, were left to dry at 30 °C for 4–5 h. […] Considering this, the 40–600 °C degradation temperature range was adopted for the subsequent TGA analyses. […] Furthermore, platinum pans and nitrogen as purge gas were used, and the temperature at which 5% weight loss occurred was defined as Tonset, aiming to avoid the decomposition differences due to pan and gas types, as well as the uncertainty from the manual determination of the Tonset tangent point, respectively. Many features can influence the thermal stability of ILs, mainly the coordinating nature of the anion. Indeed, the highly coordinating halide anions (Cl, Br) display a thermal stability lower than that of poor coordinating anions (PF6). The type of cation core influences the thermal stability of ILs, with a decreasing temperature resistance in the following order: pyrrolidinium, imidazolium, pyridinium, and non-cyclic tetra-alkyl ammonium. The increasing alkyl chain length of the imidazolium cation and branching of the alkyl substituents induce a reduction in thermal stability. Furthermore, a decrease in thermal stability is determined by the presence of alkoxylated side chains in methylimidazolium, piperidinium, and pyrrolidinium cations.
As the industrial production of end products usually involves processing methodologies during which undesirable degradation processes could affect materials’ performance, the thermal stability of neat PVC and PVC/IL film blends was analysed. As detailed for TGA analyses of pure ILs, the stability of the PVC/IL blends was determined at heating runs of 10 °C/min from 40 to 600 °C under a nitrogen atmosphere using a platinum pan. These things considered, the temperature at 5% weight loss was considered as Tonset.

HDF cells [3] = assay: Indirect cytotoxic test (ISO 10993-5 elution) of IL-loaded PVC, Alamar blue; assay type: cell-based, human; details: IL loaded into the PVC matrix at 0.5 and 1 wt%; 24 h elution, 24 h exposure
Protocol: Indirect test: ISO 10993-5, which provides test procedures to evaluate the in vitro cytotoxicity of medical devices, was employed to test biocompatibility. The elution test was conducted by incubating the material in a sterile DMEM solution (extraction vehicle prepared as described earlier) at a ratio of 0.1 g/1.0 mL at 37 °C (following ISO 10993-12 guidelines). After 24 h of elution time, the conditioned media (eluants) were collected, and 200 µL were pipetted into a 96-well plate previously seeded with HDF cells at 80% confluence. The plate was incubated for an additional 24 h (exposure time).
Cell viability was assessed in both cases using the Alamar blue assay, as described earlier. Furthermore, immunofluorescence microscopy was utilised to examine cell-material interactions and their spread using a fluorescent dye. Specifically, HDF cells were labelled with CellTracker^TM Red CMTPX (Invitrogen, Milan, Italy) in a 75 cm^2 cell culture flask, trypsinised, and then seeded onto IL-loaded polymer substrates. The cells were then incubated for 24 h at 37 °C. […]
To assess the possibility of developing substrates for use in various biomedical applications, from drug delivery to tissue engineering or as an antimicrobial coating, the biocompatibility of ionic-liquid-loaded polymeric substrates (ILs) was also evaluated using indirect and direct cytotoxicity assays. […]

CCCCCCCCCCn1cc[n+](C)c1.F[B-](F)(F)F [C10mimBF4]
IC50 (MCF7 cancer cells; n = 3): 7.39 mg/L | IC50 (MCF7 cancer cells; n = 3, mean ± SD): 23.8 µM | IC50 (HDF cells [1]; n = 3): 13.5 µM | IC50 (HDF cells [1]; n = 3, mean ± SD): 4.18 ± 0.03 mg/L | Td, maximum degradation temperature [2]: 417.2 °C | HDF cell viability, indirect cytotoxic test (HDF cells [3]): good cell survival
